Molecular target: T1, cis-aconitate decarboxylase (CAD) (Aspergillus terreus, UniProt Q0C8L3)
T1 construct: Partial Purification of CAD from Itaconic Acid Producing A. Terreus; endogenous in cells; host or cells: Aspergillus terreus NRRL 1960 mycelium (cell free extract)
Experiment: Effect of the addition of stabilizing compounds on the CAD activity
Assay type: biochemical, Aspergillus terreus NRRL 1960
Conditions: * final concentration of 20 mM, PEG 20% w/v; for CAD activity after 48 h: stabilizer added to buffer; for Initial CAD Activity: stabilizer added to buffer of A. terreus cell free extract
Protocol: The enzyme activity determination was essentially as described (Bentley et al., 1957 supra; Dwiarti et al., 2002, J Biosci Bioeng 94(1):29-33). 800 μl of 0.2 M sodium phosphate pH 6.5 was mixed with 100 μl 10 mM cis-aconitic acid and 100 μl protein solution and incubated for 20 till 60 min at 37° C. The reaction was stopped by the addition of 100 μl 12 M HCl. The amount of itaconic acid formed was determined by isocratic chromatography in 4 mM sulphuric acid on Bio-Rad Aminex HPX-87H column in a Dionex HPLC equipped with an UV detector at 215 nm. Calibration of the signal was accomplished by running a known amount of itaconic acid in a separate run. One unit (U) is one μmol of itaconic acid formed per minute. The same chromatographic assay was used to monitor the amount of itaconic acid formed in the broth of shake flasks or fermenter cultures as being indicative for cis-aconitate decarboxylase (CAD) induction. The protein concentration was measured according to Bradford with the Bio-Rad protein assay (Bradford, Anal Biochem 1976; 72:248-54).
Approximately 1 g of frozen mycelium was transferred to a Teflon vessel and grinded with a metal ball for one minute using a dismembrator (Braun-Melsungen, Germany). Multiple batches of the powdered mycelium were resuspended in 10 ml 0.2 M sodium phosphate buffer pH 6.5 containing 1 mM DTT and 1 mM EDTA and allowed to hydrate at 0° C. for thirty minutes while mixing and centrifuged at 15000 g for 30 minutes at 4° C. to obtain the CFE.
In the purification of CAD the inherent instability of the protein was noticed. […] To overcome this problem we adapted the purification method by the addition of potential stabilizers to the buffers (Table 2).

[1] = after 48 h relative to initial CAD activity

T1 sequence (Q0C8L3 whole entry): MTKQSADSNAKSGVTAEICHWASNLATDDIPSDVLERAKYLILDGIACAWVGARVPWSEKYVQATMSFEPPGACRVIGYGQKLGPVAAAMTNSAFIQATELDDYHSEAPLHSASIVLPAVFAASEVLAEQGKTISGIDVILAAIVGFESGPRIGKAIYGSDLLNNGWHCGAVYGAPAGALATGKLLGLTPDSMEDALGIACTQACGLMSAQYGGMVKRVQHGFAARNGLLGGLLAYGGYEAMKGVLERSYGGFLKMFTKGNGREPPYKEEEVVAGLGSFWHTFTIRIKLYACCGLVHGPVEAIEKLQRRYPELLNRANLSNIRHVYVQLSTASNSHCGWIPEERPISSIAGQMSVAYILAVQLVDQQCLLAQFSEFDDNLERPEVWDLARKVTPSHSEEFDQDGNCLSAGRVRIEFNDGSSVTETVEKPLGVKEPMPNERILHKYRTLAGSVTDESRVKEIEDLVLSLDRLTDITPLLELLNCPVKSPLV

Structure (SMILES): O=C1O[C@H]([C@@H](O)CO)C(O)=C1O [Ascorbic Acid]
- CAD activity after 48 h: 0.19 U/mL
- remaining activity at 20000 µM [1]: 14%
- Initial CAD Activity: 1.36 U/mL

Structure (SMILES): O=C(O)c1ccccc1 [Benzoate]
- CAD activity after 48 h: 0.43 U/mL
- Remaining activity [1]: 32%
- Initial CAD Activity: 1.36 U/mL

Structure (SMILES): O=S([O-])[O-].[Na+].[Na+] [Na2SO3]
- CAD activity after 48 h: 1.30 U/mL
- Remaining activity [1]: 88%
- Initial CAD Activity: 1.48 U/mL

Source: patent US20110099670A1, “[…] CODING FOR CIS-ACONITIC DECARBOXYLASE AND USE THEREOF” (priority 2008, published 2011)
